# Experimental data: paper PMC5640562, “Synthesis and anticancer activity of novel quinazolinone-based rhodanines” (Chemistry Central Journal, 2017)
# Tested on: HT-1080 cells
# Experiment: MTT cytotoxicity assay, HT-1080 fibrosarcoma cells
# Format: cell-based, human
# Settings: Homo sapiens, HT-1080, 72 h, 3 days incubation, mean of three independent experiments (± standard deviation)
# Procedure: The compounds were tested for their cytotoxic activity on a solid tumor cell line, i.e. HT-1080 originating from a fibrosarcoma (American Type Culture Collection; ATCC, Rockville, MD, USA), and on two leukemia cell lines, i.e. the HL-60 human promyelocytic leukemia (European Collection of Animal Cell Cultures; ECACC, Salisbury, UK) and the K-562 human chronic myelogenous leukemia (ATCC). Furthermore, the human skin fibroblast strain AG01523 (Coriell Institute for Medical Research, Camden, NJ, USA) was also used as normal control. Adherent cells were routinely cultured in Dulbecco’s […] (DMEM), and leukemia cells in RPMI 1640, in an environment of 5% CO2, 85% humidity, and 37 °C. All media were supplemented with penicillin (100 U/ml), streptomycin (100 μg/ml) (media and antibiotics from Biochrom KG, Berlin, Germany), and 10% fetal bovine serum (Life Technologies Europe BV, Thessaloniki, Greece). Adherent cells were subcultured using a trypsin (0.25%; Life Technologies Europe BV)—citrate (0.30%; Sigma, St. Louis, MO, USA) solution. The cytotoxicity assay was performed by a modification of the MTT method. Briefly, the cells were plated in flat-bottomed 96-well microplates at a density of 5000 cells/well, and incubated overnight before the addition of serial dilutions of the test compounds. The cells were incubated with the compounds or the corresponding vehicle (DMSO) concentrations for 3 days. Then, the medium was replaced with MTT (Sigma) in serum-free, phenol-red-free DMEM (1 mg/ml). After incubation for 4 h, the MTT formazan was solubilized in 2-propanol, and the optical density was measured using a FLUOstar Optima (BMG Labtech, Ortenberg, Germany) microplate reader at a wavelength of 550 nm (reference wavelength 660 nm). Doxorubicin hydrochloride (Sigma) was included in the experiments as positive control. The results represent the mean of three independent experiments and are expressed as IC50 [42].
row,SMILES,IC50
1,"O=C1NC(=S)SC1=Cc1ccc(OCc2nc3ccccc3c(=O)n2-c2ccccc2)cc1 [Compound 31, 5-{4-[(3-Phenyl-4-oxo-3,4-dihydroquinazolin-2-yl)methoxy]benzylidene}-2-thioxothiazolidin-4-one]",42.9 µM
2,"O=C1NC(=S)SC1=Cc1ccc(OCc2nc3ccccc3c(=O)n2-c2ccc(F)cc2)cc1 [Compound 32, 5-{4-[(3-(4-Fluorophenyl)-4-oxo-3,4-dihydroquinazolin-2-yl)methoxy]benzylidene}-2-thioxothiazolidin-4-one]",47.3 µM
3,"O=C1NC(=S)SC1=Cc1ccc(OCc2nc3ccccc3c(=O)n2-c2ccc(Cl)cc2)cc1 [Compound 33, 5-{4-[(3-(4-Chlorophenyl)-4-oxo-3,4-dihydroquinazolin-2-yl)methoxy]benzylidene}-2-thioxothiazolidin-4-one]",35.3 µM
4,"O=C1NC(=S)SC1=Cc1ccc(OCc2nc3ccccc3c(=O)n2-c2cccc(Cl)c2)cc1 [Compound 34, 5-{4-[(3-(3-Chlorophenyl)-4-oxo-3,4-dihydroquinazolin-2-yl)methoxy]benzylidene}-2-thioxothiazolidin-4-one]",57.1 µM
5,"O=C1NC(=S)SC1=Cc1ccc(OCc2nc3ccccc3c(=O)n2-c2ccc(Br)cc2)cc1 [Compound 35, 5-{4-[(3-(4-Bromophenyl)-4-oxo-3,4-dihydroquinazolin-2-yl)methoxy]benzylidene}-2-thioxothiazolidin-4-one]",28.8 µM
6,"O=C1NC(=S)SC1=Cc1ccc(OCc2nc3ccccc3c(=O)n2-c2cccc(Br)c2)cc1 [Compound 36, 5-{4-[(3-(3-Bromophenyl)-4-oxo-3,4-dihydroquinazolin-2-yl)methoxy]benzylidene}-2-thioxothiazolidin-4-one]",43.4 µM
7,"Cc1ccc(-n2c(COc3ccc(C=C4SC(=S)NC4=O)cc3)nc3ccccc3c2=O)cc1 [Compound 38, 5-{4-[(3-(4-Methylphenyl)-4-oxo-3,4-dihydroquinazolin-2-yl)methoxy]benzylidene}-2-thioxothiazolidin-4-one]",35.7 µM
8,"Cc1cccc(-n2c(COc3ccc(C=C4SC(=S)NC4=O)cc3)nc3ccccc3c2=O)c1 [Compound 39, 5-{4-[(3-(3-Methylphenyl)-4-oxo-3,4-dihydroquinazolin-2yl)methoxy]benzylidene}-2-thioxothiazolidin-4-one]",47.5 µM
9,"COc1cc(C=C2SC(=S)NC2=O)ccc1OCc1nc2ccccc2c(=O)n1-c1ccccc1 [Compound 41, 5-{4-[(3-Phenyl-4-oxo-3,4-dihydroquinazolin-2-yl)methoxy]-3-methoxybenzylidene}-2-thioxothiazolidin-4-one]",36.1 µM
10,"COc1cc(C=C2SC(=S)NC2=O)ccc1OCc1nc2ccccc2c(=O)n1-c1cccc(Br)c1 [Compound 46, 5-{4-[(3-(3-Bromophenyl)-4-oxo-3,4-dihydroquinazolin-2-yl)methoxy]-3-methoxybenzylidene}-2-thioxothiazolidin-4-one]",23.7 µM
11,"COc1cc(C=C2SC(=S)NC2=O)ccc1OCc1nc2ccccc2c(=O)n1-c1ccc(C)cc1 [Compound 48, 5-{4-[(3-(4-Methylphenyl)-4-oxo-3,4-dihydroquinazolin-2-yl)methoxy]-3-methoxybenzylidene}-2-thioxothiazolidin-4-one]",31.5 µM
12,"COc1cc(C=C2SC(=S)NC2=O)ccc1OCc1nc2ccccc2c(=O)n1-c1cccc(C)c1 [Compound 49, 5-{4-[(3-(3-Methylphenyl)-4-oxo-3,4-dihydroquinazolin-2-yl)methoxy]-3-methoxybenzylidene}-2-thioxothiazolidin-4-one]",30.7 µM
13,"COc1ccc(-n2c(COc3ccc(C=C4SC(=S)NC4=O)cc3OC)nc3ccccc3c2=O)cc1 [Compound 50, 5-{4-[(3-(4-Methoxyphenyl)-4-oxo-3,4-dihydroquinazolin-2-yl)methoxy]-3-methoxybenzylidene}-2-thioxothiazolidin-4-one]",34.7 µM

# Tested on: not given
# Experiment: not given
# Settings: not given
row,melting point,SMILES
1,231 to 233 °C (dec.),"O=C1NC(=S)SC1=Cc1ccc(OCc2nc3ccccc3c(=O)n2-c2ccc(F)cc2)cc1 (hydrate or solvate) [Compound 32, 5-{4-[(3-(4-Fluorophenyl)-4-oxo-3,4-dihydroquinazolin-2-yl)methoxy]benzylidene}-2-thioxothiazolidin-4-one]"
2,121 to 123 °C,"O=C1NC(=S)SC1=Cc1ccc(OCc2nc3ccccc3c(=O)n2-c2ccc(Cl)cc2)cc1 (hydrate or solvate) [Compound 33, 5-{4-[(3-(4-Chlorophenyl)-4-oxo-3,4-dihydroquinazolin-2-yl)methoxy]benzylidene}-2-thioxothiazolidin-4-one]"
3,237 to 239 °C,"O=C1NC(=S)SC1=Cc1ccc(OCc2nc3ccccc3c(=O)n2-c2cccc(Cl)c2)cc1 (hydrate or solvate) [Compound 34, 5-{4-[(3-(3-Chlorophenyl)-4-oxo-3,4-dihydroquinazolin-2-yl)methoxy]benzylidene}-2-thioxothiazolidin-4-one]"
4,171 to 174 °C,"O=C1NC(=S)SC1=Cc1ccc(OCc2nc3ccccc3c(=O)n2-c2ccc(Br)cc2)cc1 (hydrate or solvate) [Compound 35, 5-{4-[(3-(4-Bromophenyl)-4-oxo-3,4-dihydroquinazolin-2-yl)methoxy]benzylidene}-2-thioxothiazolidin-4-one]"
5,252 to 254 °C,"O=C1NC(=S)SC1=Cc1ccc(OCc2nc3ccccc3c(=O)n2-c2cccc(Br)c2)cc1 (hydrate or solvate) [Compound 36, 5-{4-[(3-(3-Bromophenyl)-4-oxo-3,4-dihydroquinazolin-2-yl)methoxy]benzylidene}-2-thioxothiazolidin-4-one]"
6,153 to 155 °C,"O=C1NC(=S)SC1=Cc1ccc(OCc2nc3ccccc3c(=O)n2-c2ccc(C(F)(F)F)cc2)cc1 (hydrate or solvate) [Compound 37, 5-{4-[(3-(4-Trifluoromethylphenyl)-4-oxo-3,4-dihydroquinazolin-2-yl)methoxy]benzylidene}-2-thioxothiazolidin-4-one]"
7,148 to 150 °C,"Cc1ccc(-n2c(COc3ccc(C=C4SC(=S)NC4=O)cc3)nc3ccccc3c2=O)cc1 (hydrate or solvate) [Compound 38, 5-{4-[(3-(4-Methylphenyl)-4-oxo-3,4-dihydroquinazolin-2-yl)methoxy]benzylidene}-2-thioxothiazolidin-4-one]"
8,243 to 246 °C,"COc1cc(C=C2SC(=S)NC2=O)ccc1OCc1nc2ccccc2c(=O)n1-c1ccccc1 (hydrate or solvate) [Compound 41, 5-{4-[(3-Phenyl-4-oxo-3,4-dihydroquinazolin-2-yl)methoxy]-3-methoxybenzylidene}-2-thioxothiazolidin-4-one]"
9,239 to 241 °C,"COc1cc(C=C2SC(=S)NC2=O)ccc1OCc1nc2ccccc2c(=O)n1-c1ccc(Cl)cc1 (hydrate or solvate) [Compound 43, 5-{4-[(3-(4-Chlorophenyl)-4-oxo-3,4-dihydroquinazolin-2-yl)methoxy]-3-methoxybenzylidene}-2-thioxothiazolidin-4-one]"
10,214 to 217 °C,"COc1cc(C=C2SC(=S)NC2=O)ccc1OCc1nc2ccccc2c(=O)n1-c1ccc(Br)cc1 (hydrate or solvate) [Compound 45, 5-{4-[(3-(4-Bromophenyl)-4-oxo-3,4-dihydroquinazolin-2-yl)methoxy]-3-methoxybenzylidene}-2-thioxothiazolidin-4-one]"
11,243 to 245 °C,"COc1cc(C=C2SC(=S)NC2=O)ccc1OCc1nc2ccccc2c(=O)n1-c1cccc(Br)c1 (hydrate or solvate) [Compound 46, 5-{4-[(3-(3-Bromophenyl)-4-oxo-3,4-dihydroquinazolin-2-yl)methoxy]-3-methoxybenzylidene}-2-thioxothiazolidin-4-one]"
12,172 to 175 °C,"COc1cc(C=C2SC(=S)NC2=O)ccc1OCc1nc2ccccc2c(=O)n1-c1ccc(C)cc1 (hydrate or solvate) [Compound 48, 5-{4-[(3-(4-Methylphenyl)-4-oxo-3,4-dihydroquinazolin-2-yl)methoxy]-3-methoxybenzylidene}-2-thioxothiazolidin-4-one]"
13,154 to 156 °C,"COc1cc(C=C2SC(=S)NC2=O)ccc1OCc1nc2ccccc2c(=O)n1-c1cccc(C)c1 (hydrate or solvate) [Compound 49, 5-{4-[(3-(3-Methylphenyl)-4-oxo-3,4-dihydroquinazolin-2-yl)methoxy]-3-methoxybenzylidene}-2-thioxothiazolidin-4-one]"
14,148 to 150 °C,"COc1ccc(-n2c(COc3ccc(C=C4SC(=S)NC4=O)cc3OC)nc3ccccc3c2=O)cc1 (hydrate or solvate) [Compound 50, 5-{4-[(3-(4-Methoxyphenyl)-4-oxo-3,4-dihydroquinazolin-2-yl)methoxy]-3-methoxybenzylidene}-2-thioxothiazolidin-4-one]"
15,230 to 232 °C,"O=C1NC(=S)SC1=Cc1ccc(OCc2nc3ccccc3c(=O)n2-c2ccccc2)cc1 [Compound 31, 5-{4-[(3-Phenyl-4-oxo-3,4-dihydroquinazolin-2-yl)methoxy]benzylidene}-2-thioxothiazolidin-4-one]"
16,165 to 168 °C,"Cc1cccc(-n2c(COc3ccc(C=C4SC(=S)NC4=O)cc3)nc3ccccc3c2=O)c1 [Compound 39, 5-{4-[(3-(3-Methylphenyl)-4-oxo-3,4-dihydroquinazolin-2yl)methoxy]benzylidene}-2-thioxothiazolidin-4-one]"
